Assay results reported in patent US20150166476A1, “METHODS FOR TREATING NEURODEGENERATIVE DISEASES ASSOCIATED WITH AGGREGATION OF AMYLOID-BETA” (priority 2013, published 2015).
“Also recorded” adds a separate entry of the source.

Tests used:
Aβ1-40 [1] = target: T1, Aβ1-40 (Homo sapiens, UniProt P05067); experiment: FT-IR spectroscopy of the secondary structure of Aβ1-40; type: biochemical; conditions: day 1 and day 5 (FIG. 2)
T1 construct: Aβ1-40 peptide was synthesized in a solid-phase synthesizer; made in house; host or cells: chemical solid-phase peptide synthesis (no expression host)
Method: The secondary structure of Aβ1-40 with or without the compound of formula (I) was investigated using FT-IR spectrometer (Jasco, FT-IR/4100) equipped with an attenuated reflection accessory to determine the conformation of Aβ1-40 during the aggregative process. 100 μL of 0.1 mM Aβ solution was coated on ZnSe crystals and dried overnight in a desiccators at room temperature. The spectra were recorded at 1,500 to 1,800 cm^−1 with a 1 cm^−1 interval. The peak was identified from the first derivation of the IR spectrum in the amide I region, and the secondary structure was analyzed using Original 6.0 software.
It is known that during the aggregation process, the conformation of Aβ1-40 is converted to either […]. […] Results are depicted in FIG. 2.

Aβ1-40 [2] = target: T1, Aβ1-40; experiment: Peptide aggregation assay (Thioflavin-T fluorescence); type: biochemical; conditions: 25 μM Aβ1-40, 100 ng/mL compound, 37° C., day 5 (FIG. 1)
Method: Thioflavin-T (ThT) was used to monitor the aggregation state of Aβ1-40. 25 μM of Aβ1-40 was freshly diluted from the peptide stock solution in phosphate buffer (pH 7.4), for peptide aggregation assay. All samples containing a peptide concentration of 25 μM in the absence or presence of 100 ng/mL the compound of formula (I) and 3 μM ThT were incubated at 37° C. Samples containing either Aβ peptide only (control), or Aβ with the compound of formula (I), taking daily from day 0 to day 7, were used to measure the ThT sensitivity. The fluorescence measurement was performed on a microplate reader (FlexSTation 3, MD), with excitation and emission wavelength respectively set at 440 nm and 485 nm.
In this example, the effects of the compound of formula (I) on the aggregation of Aβ1-40 were investigated using the Th-T fluorescence assay described above in the Material and Methods section. Results are depicted in FIG. 1.

SH-SY5Y cells = experiment: Cell viability assay (WST-1), Aβ1-40 induced cell death; type: cell-based, Human; conditions: for effect on Aβ1-40 induced cell death (cell viability): 25 μM Aβ1-40, 24 hr, compound at concentration below 100 ng/mL (FIG. 3)
Method: Human […] SH-SY5Y cells were cultured in minimum essential medium supplemented with 10% (v/v) heat-inactivated fetal bovine serum, 50% (v/v) F-12 nutrient mixture, and 1% (v/v) antibiotic mixture comprised of penicillin and streptomycin. Cells were kept at 37° C. in a humidified atmosphere of 5% CO2. SH-SY5Y cells were plated at a density of 1×10^5 viable cells per well in 96-well plates for future analysis.
The cell viability was determined by the WST-1 assay. […] of Aβ1-40 peptide stock solution were prepared by dissolving 1 mg Aβ1-40 in 1 mL trifluoroethanol and centrifuging to remove any insoluble particles. The peptide solution was then dried under nitrogen gas and re-dissolved in dimethyl sulfoxide, and incubated at 4° C. for 12 hr to provide the final peptide stock solution. For the viability assay, cells (1×10^5 cells/well in a 96-well microtiter plate) were treated with either 25 μM Aβ peptides only (as a positive control), or with the combination of 25 μM Aβ peptides and the compound of formula (I), in a concentration ranged from 1 to 1,000 ng/mL. The reaction was performed in a total volume of 200 μL per well for 24 hr at 37° C. in a humidified atmosphere containing 5% CO2 before cell viability was assayed. The WST-1 solution (10 μL) was added to each well, and the wells were incubated for another 4-5 hr at room temperature. The optical density was measured at 405 nm using a microplate reader.
In this example, the effects of compounds of formula (I) on Aβ1-40 induced cell toxicity were investigated by cell viability assay.

Aβ1-40 [3] = target: T1, Aβ1-40; experiment: Free radical assay (DCFH-DA), cell free; type: biochemical; conditions: 25 μM Aβ1-40, versus Aβ1-40 alone (FIG. 4)
Method: The level of free radicals (H2O2) induced by Aβ1-40 peptide in cell free conditions was analyzed using the dichlorofluorescein diacetate (DCFH-DA) assay. DCF-DA was deacetylated with 50% (v/v) 0.05 M NaOH for 30 min and neutralized (pH 7.5) to a final concentration of 200 μM as a stock solution. This stock solution was kept on ice in the dark until future use. The reactions were carried out in a 96-well plate (200 μL/well) containing 25 μM of Aβ1-40 diluted from the stock solution, 20 μM deacetylated DCF, 5 μM horseradish peroxidase, in Dulbecco's phosphate-buffered saline, pH 7.5. To determine the inhibitory effects of the compound of formula (I) on free radical formation, various concentrations of the compound of formula (I) were added and incubated at 37° C. Fluoresence readings were recorded on a microplate reader (FlexSTation 3, MD) with the excitation wavelength of 485 nm and the emission wavelength of 530 nm. The fluorescence intensity of DCF (H2O2 level) was measured every 6 hr and from 0 to 72 hr.

T1 sequence (P05067 672-711 limits assumed): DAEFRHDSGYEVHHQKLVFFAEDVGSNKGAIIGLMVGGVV

SMILES	conformation of Aβ1-40 (FT-IR, 1650 cm^−1 random coil vs 1625 cm^−1 β-sheet) (Aβ1-40 [1])	effect on the aggregation of Aβ1-40 (Th-T fluorescence intensity) (Aβ1-40 [2])	effect on Aβ1-40 induced cell death (cell viability) (SH-SY5Y cells)	Aβ1-40 induced free radical levels (DCF fluorescence intensity) (Aβ1-40 [3])	cell survival rate (SH-SY5Y cells; 25 μM Aβ1-40, 1 ng/mL compound) [%]	cell survival rate (SH-SY5Y cells; 25 μM Aβ1-40, 100 ng/mL compound) [%]	cell survival rate (SH-SY5Y cells; 25 μM Aβ1-40, 1,000 ng/mL compound) [%]
CC1=C(SCCO)C(=O)c2ccccc2C1=O [VK3-1]	converted to β-sheet structure	capable of enhancing the aggregation of Aβ1-40	smaller effects	resulted even more free radicals as compared with the control	–	–	–
CC1=C(SCCCO)C(=O)c2ccccc2C1=O [VK3-2]	remained mostly in random coil conformation	capable of preventing Aβ1-40 from aggregation	smaller effects	resulted even more free radicals as compared with the control	–	–	–
CC1=C(SCCCCO)C(=O)c2ccccc2C1=O [VK3-3]	converted to β-sheet structure	–	smaller effects	resulted even more free radicals as compared with the control	–	–	–
CC1=C(SCCCCCCO)C(=O)c2ccccc2C1=O [VK3-4]	–	capable of enhancing the aggregation of Aβ1-40	smaller effects	–	–	–	–
CC1=C(SCCCCCCCCCCCO)C(=O)c2ccccc2C1=O [VK3-5]	converted to β-sheet structure	capable of enhancing the aggregation of Aβ1-40	smaller effects	effectively inhibited	–	–	–
CC1=C(SCCC(=O)O)C(=O)c2ccccc2C1=O [VK3-6]	remained mostly in random coil conformation	capable of preventing Aβ1-40 from aggregation; also recorded: most potent	–	–	–	–	–
CC1=C(SCC(C)O)C(=O)c2ccccc2C1=O (centres unmarked) [VK3-8]	remained mostly in random coil conformation	capable of preventing Aβ1-40 from aggregation	smaller effects	resulted even more free radicals as compared with the control	–	–	–
CC1=C(SCC(O)CO)C(=O)c2ccccc2C1=O (centres unmarked) [VK3-9]	remained mostly in random coil conformation	capable of preventing Aβ1-40 from aggregation; also recorded: most potent	exhibited the ability of preventing Aβ1-40 induced cell death	effectively inhibited	50	88	92
O=C1C=C(SCCO)C(=O)c2ccccc21 [VK3-199]	remained mostly in random coil conformation	capable of preventing Aβ1-40 from aggregation	smaller effects	resulted even more free radicals as compared with the control	–	–	–
CC1=C(O)C(=O)c2ccccc2C1=O [VK3-221]	remained mostly in random coil conformation	capable of preventing Aβ1-40 from aggregation	smaller effects	–	–	–	–
CC1=C(NCCN2CCOCC2)C(=O)c2ccccc2C1=O [VK3-224]	remained mostly in random coil conformation	capable of preventing Aβ1-40 from aggregation	no difference from that of the control	–	–	–	–
O=C1C(SCCO)=C(SCCO)C(=O)c2ccccc21 [VK3-231]	–	–	smaller effects	resulted even more free radicals as compared with the control	–	–	–
O=C1C(SCC(O)CO)=C(SCC(O)CO)C(=O)c2ccccc21 (centres unmarked) [VK3-232]	–	–	no difference from that of the control	–	–	–	–
O=C1C(SCCCCCCO)=C(SCCCCCCO)C(=O)c2ccccc21 [VK3-233-2d]	converted to β-sheet structure	capable of enhancing the aggregation of Aβ1-40	no difference from that of the control	resulted even more free radicals as compared with the control	–	–	–
